Earlier results on 7 compounds are cited in patent publication US8366600B2, “Polyamine enhanced formulations for triptan compound iontophoresis” (NuPathe Inc., priority 2008, dated 2013).

The conditions of series [1]: for Cmax: expected maximum concentration in the patient's plasma; for AUC: total plasma concentration.
The conditions of series [2]: transdermal, iontophoresis vs passive.

For orientation: Cmax means the maximum level reached in the sampled fluid or tissue. In general, AUC refers to concentration integrated over time. Regarding `CN(C)CCc1c[nH]c2ccc(Cn3cncn3)cc12` [Rizatriptan], in series [1], the Cmax is 22 ng/mL and the AUC is 78 ng·h/mL. Take `CNS(=O)(=O)CCc1ccc2[nH]cc(C3CCN(C)CC3)c2c1` [Naratriptan]: in series [1], the Cmax was 8 ng/mL and the AUC is 75 ng·h/mL. As to `CN(C)CCc1c[nH]c2ccc(C[C@H]3COC(=O)N3)cc12` [Zolmitriptan], in series [1], the Cmax is given as 4 ng/mL and the AUC was 20 ng·h/mL. In the case of `CNS(=O)(=O)Cc1ccc2[nH]cc(CCN(C)C)c2c1` [Sumatriptan], in series [2], the “rate of iontophoretic transport relative to passive transport” value is 385 fold. For the compound `CN[C@@H]1CCc2[nH]c3ccc(C(N)=O)cc3c2C1` [Frovatriptan], in series [1], the peak concentration (Cmax) is listed as 5 ng/mL and the AUC is 45 ng·h/mL.

Regarding `CN(C)CCc1c[nH]c2ccc(CS(=O)(=O)N3CCCC3)cc12` [Almotriptan], in series [1], the Cmax is reported as 52 ng/mL and the AUC is 310 ng·h/mL. Regarding `CN1CCC[C@@H]1Cc1c[nH]c2ccc(CCS(=O)(=O)c3ccccc3)cc12` [Eletriptan], in series [1], the Cmax was 200 ng/mL and the AUC is reported as 1,300 ng · hr/mL.
